Reference: US10131648B2, “Substituted benzothiophenyl derivatives as GPR40 agonists for the treatment of type II diabetes” (Janssen Pharmaceutica NV, priority 2014, dated 2018)

Target: human GPR40 (Homo sapiens (Human), UniProt O14842)
Assay: GPR40 Calcium Flux Assay
Type: cell-based
Conditions: transfected HEK293 cells stably expressing human GPR40; Ca2+ mobilization; mean data; read-out: hGPR40 Ca^2+ Assay EC50
Description: Compounds were tested in a calcium flux assay using transfected HEK293 cells stably expressing either human GPR40 or rat GPR40. Human GPR40 expressing cells were cultured in DMEM-High Glucose media supplemented with 10% fetal bovine serum, 1×L-Glutamine, 1×Penicillin/Streptomycin and 500 μg/mL G418. Rat GPR40 expressing cells were cultured in DMEM-High Glucose media supplemented with 10% fetal bovine serum and 1 μg/mL puromycin. Cells were plated into poly-D-lysine coated 384-well plates and cultured overnight in a 37° C. humidified tissue culture incubator under 5% CO2/[…] atmosphere. On the day of the experiment, the culture media was replaced with assay buffer (HBSS, 20 mM HEPES, 0.1% BSA) and the cells incubated at 37° C. for 1 h. Calcium-sensitive fluorescent dye (Fluo 8 No-Wash Calcium Dye, ABD Bioquest) was then added and the cells incubated for another 30 min at 37° C. followed by 15 min at room temperature while protected from the light. The cell plate and a plate of diluted compounds of Formula (I) were loaded into a fluorescent plate reader that added compounds onto the cells while measuring the fluorescence intensity of each well. The plate reader recorded fluorescence intensity at 1 second intervals for 8 min and provided the data for analysis in an Excel format. EC50 values were calculated using Prism (GraphPad) software.

Sequence of human GPR40 (O14842 whole entry): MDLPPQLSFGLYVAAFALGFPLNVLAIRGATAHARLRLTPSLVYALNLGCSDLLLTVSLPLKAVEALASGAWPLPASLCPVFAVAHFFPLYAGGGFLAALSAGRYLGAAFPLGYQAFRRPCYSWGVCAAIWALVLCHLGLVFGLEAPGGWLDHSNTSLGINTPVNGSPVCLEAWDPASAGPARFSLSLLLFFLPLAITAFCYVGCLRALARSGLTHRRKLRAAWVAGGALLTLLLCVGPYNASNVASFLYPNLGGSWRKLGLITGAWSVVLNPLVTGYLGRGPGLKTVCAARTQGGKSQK

SMILES | EC50 [nM]
CC#CC(CC(=O)O)c1ccc(OCc2ccc3scc(-c4ccc(OC5CCOCC5)cc4C)c3c2)nc1 (stereo not drawn) [Cpd 46, 3-(6-((3-(2-Methyl-4-((tetrahydro-2H-pyran-4-yl)oxy)phenyl)benzo[b]thiophen-5-yl)methoxy)pyridin-3-yl)hex-4-ynoic acid] | 18
CC#CC(CC(=O)O)c1ccc(OCc2ccc3scc(-c4ccc(OCCOC)cc4C)c3c2)nc1 (stereo not drawn) [Cpd 47, 3-(6-((3-(4-(2-Methoxyethoxy)-2-methylphenyl)benzo[b]thiophen-5-yl)methoxy)pyridin-3-yl)hex-4-ynoic acid] | 20
CC#C[C@@H](CC(=O)O)c1ccc(OCc2ccc3scc(-c4ncc(OCCOC)cc4C)c3c2)cc1 [Cpd 48, (3S)-3-(4-((3-(5-(2-Methoxyethoxy)-3-methylpyridin-2-yl)benzo[b]thiophen-5-yl)methoxy)phenyl)hex-4-ynoic acid] | 10
CC#C[C@@H](CC(=O)O)c1ccc(OCc2ccc3scc(-c4cc(OCCOC)cnc4C)c3c2)cc1 [Cpd 49, (3S)-3-(4-((3-(5-(2-Methoxyethoxy)-2-methylpyridin-3-yl)benzo[b]thiophen-5-yl)methoxy)phenyl)hex-4-ynoic acid] | 9
CC#C[C@@H](CC(=O)O)c1ccc(OCc2ccc3scc(-c4ccc(OCCOC)nc4C)c3c2)cc1 [Cpd 50, (3S)-3-(4-((3-(6-(2-Methoxyethoxy)-2-methylpyridin-3-yl)benzo[b]thiophen-5-yl)methoxy)phenyl)hex-4-ynoic acid] | 12
CC#C[C@@H](CC(=O)O)c1ccc(OCc2ccc3scc(-c4cnc(OCCOC)cc4C)c3c2)cc1 [Cpd 51, (3S)-3-(4-((3-(6-(2-Methoxyethoxy)-4-methylpyridin-3-yl)benzo[b]thiophen-5-yl)methoxy)phenyl)hex-4-ynoic acid] | 6
CC#C[C@@H](CC(=O)O)c1ccc(OCc2ccc3scc(-c4cc(Cl)ncc4C)c3c2)cc1 [Cpd 52, (3S)-3-(4-((3-(2-Chloro-5-methylpyridin-4-yl)benzo[b]thiophen-5-yl)methoxy)phenyl)hex-4-ynoic acid] | 19
Cc1ccccc1-c1csc2ccc(OCc3ccc(CCC(=O)O)cc3)cc12 [Cpd 53, 3-(4-(((3-(2-Methylphenyl)benzo[b]thiophen-5-yl)oxy)methyl)phenyl)propanoic acid] | 890
CC#C[C@@H](CC(=O)O)c1ccc(COc2ccc3scc(-c4ccc(OCCC(C)(C)O)cc4C)c3c2)cc1 [Cpd 54, (3S)-3-[4-[([3-[4-(3-Hydroxy-3-methylbutoxy)-2-methylphenyl]-1-benzothiophen-5-yl]oxy)methyl]phenyl]hex-4-ynoic acid] | 44
CC#C[C@@H](CC(=O)O)c1ccc(COc2ccc3scc(-c4ccc(OCC(O)CO)cc4C)c3c2)cc1 (stereo partly drawn) [Cpd 55, (3S)-3-[4-[([3-[4-(2,3-Dihydroxypropoxy)-2-methylphenyl]-1-benzothiophen-5-yl]oxy)methyl]phenyl]hex-4-ynoic acid] | 33
CC#C[C@@H](CC(=O)O)c1ccc(COc2ccc3scc(-c4ccc(OCC5(C)COC5)cc4C)c3c2)cc1 [Cpd 56, (3S)-3-(4-[[(3-[2-Methyl-4-[(3-methyloxetan-3-yl)methoxy]phenyl]-1-benzothiophen-5-yl)oxy]methyl]phenyl)hex-4-ynoic acid] | 34
CC#C[C@@H](CC(=O)O)c1ccc(COc2ccc3scc(-c4ccc(OC5CCOCC5)cc4C)c3c2)cc1 [Cpd 57, (3S)-3-[4-[([3-[2-Methyl-4-(oxan-4-yloxy)phenyl]-1-benzothiophen-5-yl]oxy)methyl]phenyl]hex-4-ynoic acid] | 17
CC#C[C@@H](CC(=O)O)c1ccc(COc2ccc3scc(-c4ccc(OCCOC)cc4C)c3c2)cc1 [Cpd 58, (3S)-3-[4-[([3-[4-(2-Methoxyethoxy)-2-methylphenyl]-1-benzothiophen-5-yl]oxy)methyl]phenyl]hex-4-ynoic acid] | 14
CC#C[C@@H](CC(=O)O)c1ccc(COc2ccc3scc(-c4ccc(OCC5CCS(=O)(=O)CC5)cc4C)c3c2)cc1 [Cpd 59, (3S)-3-{4-[((3-{4-[(1,1-Dioxo-tetrahydro-2H-thiopyran-4-yl)methoxy]-2-methylphenyl}-1-benzothiophen-5-yl)oxy)methyl]phenyl}hex-4-ynoic acid] | 14
CC#C[C@@H](CC(=O)O)c1ccc(COc2ccc3scc(-c4ccc(OCC5(C)CS(=O)(=O)C5)cc4C)c3c2)cc1 [Cpd 60, (3S)-3-(4-(((3-(2-Methyl-4-((3-methyl-1,1-dioxidothietan-3-yl)methoxy)phenyl)benzo[b]thiophen-5-yl)oxy)methyl)phenyl)hex-4-ynoic acid] | 70
CC#CC(CC(=O)O)c1ccc(OCc2ccc3scc(-c4ccc(OCCC(C)(C)O)cc4C)c3c2)nc1 (stereo not drawn) [Cpd 61] | 16
CC#CC(CC(=O)O)c1ccc(OCc2ccc3scc(-c4ccc(OCC(O)CO)cc4C)c3c2)nc1 (stereo not drawn) [Cpd 62, 3-(6-((3-(4-(2,3-Dihydroxypropoxy)-2-methylphenyl)benzo[b]thiophen-5-yl)methoxy)pyridin-3-yl)hex-4-ynoic acid] | 10
CC#CC(CC(=O)O)c1ccc(OCc2ccc3scc(-c4ccc(OCC5CCS(=O)(=O)CC5)cc4C)c3c2)nc1 (stereo not drawn) [Cpd 63, 3-(6-((3-(4-((1,1-Dioxidotetrahydro-2H-thiopyran-4-yl)methoxy)-2-methylphenyl)benzo[b]thiophen-5-yl)methoxy)pyridin-3-yl)hex-4-ynoic acid] | 10
CC#CC(CC(=O)O)c1ccc(OCc2ccc3scc(-c4ccc(OCC5(C)CS(=O)(=O)C5)cc4C)c3c2)nc1 (stereo not drawn) [Cpd 64, 3-(6-((3-(2-Methyl-4-((3-methyl-1,1-dioxidothietan-3-yl)methoxy)phenyl)benzo[b]thiophen-5-yl)methoxy)pyridin-3-yl)hex-4-ynoic acid] | 21
CC#C[C@@H](CC(=O)O)c1ccc(OCc2ccc3scc(-c4cc(OCCOC)ccc4C)c3c2)cc1 [Cpd 65, (3S)-3-[4-([3-[5-(2-Methoxyethoxy)-2-methylphenyl]-1-benzothiophen-5-yl]methoxy)phenyl]hex-4-ynoic acid] | 11
CC#C[C@@H](CC(=O)O)c1ccc(OCc2ccc3scc(-c4c(C)cccc4OCCOC)c3c2)cc1 [Cpd 66, (3S)-3-[4-([3-[2-(2-Methoxyethoxy)-6-methylphenyl]-1-benzothiophen-5-yl]methoxy)phenyl]hex-4-ynoic acid] | 14
CC#C[C@@H](CC(=O)O)c1ccc(OCc2ccc3scc(-c4cccc(OCCOC)c4C)c3c2)cc1 [Cpd 67, (3S)-3-[4-([3-[3-(2-Methoxyethoxy)-2-methylphenyl]-1-benzothiophen-5-yl]methoxy)phenyl]hex-4-ynoic acid] | 9
CC#C[C@@H](CC(=O)O)c1ccc(OCc2ccc3scc(-c4ccccc4OCCOC)c3c2)cc1 [Cpd 68, (3S)-3-[4-([3-[2-(2-Methoxyethoxy)phenyl]-1-benzothiophen-5-yl]methoxy)phenyl]hex-4-ynoic acid] | 19
CC#C[C@H](CC(=O)O)c1ccc(OCc2ccc3scc(-c4ccc(OCCC(C)(C)O)cc4C)c3c2)nc1 [Cpd 70, (3S)-3-(6-((3-(4-(3-Hydroxy-3-methylbutoxy)-2-methylphenyl)benzo[b]thiophen-5-yl)methoxy)pyridin-3-yl)hex-4-ynoic acid] | 500
CC#C[C@@H](CC(=O)O)c1ccc(OCc2ccc3scc(-c4ccc(OCCC(C)(C)O)cc4C)c3c2)nc1 [Cpd 71, (3R)-3-(6-((3-(4-(3-Hydroxy-3-methylbutoxy)-2-methylphenyl)benzo[b]thiophen-5-yl)methoxy)pyridin-3-yl)hex-4-ynoic acid] | 12
CC#C[C@H](CC(=O)O)c1ccc(OCc2ccc3scc(-c4ccc(OCC5CCOCC5)cc4C)c3c2)nc1 [Cpd 72, (3S)-3-(6-((3-(2-Methyl-4-((tetrahydro-2H-pyran-4-yl)methoxy)phenyl)benzo[b]thiophen-5-yl)methoxy)pyridin-3-yl)hex-4-ynoic acid] | 1330
CC#C[C@@H](CC(=O)O)c1ccc(OCc2ccc3scc(-c4ccc(OCC5CCOCC5)cc4C)c3c2)nc1 [Cpd 73, (3R)-3-(6-((3-(2-Methyl-4-((tetrahydro-2H-pyran-4-yl)methoxy)phenyl)benzo[b]thiophen-5-yl)methoxy)pyridin-3-yl)hex-4-ynoic acid] | 13
CC#C[C@H](CC(=O)O)c1ccc(OCc2ccc3scc(-c4ccc(OCC5CCS(=O)(=O)CC5)cc4C)c3c2)nc1 [Cpd 74, (3S)-3-(6-((3-(4-((1,1-Dioxidotetrahydro-2H-thiopyran-4-yl)methoxy)-2-methylphenyl)benzo[b]thiophen-5-yl)methoxy)pyridin-3-yl)hex-4-ynoic acid] | 180
CC#C[C@@H](CC(=O)O)c1ccc(OCc2ccc3scc(-c4ccc(OCC5CCS(=O)(=O)CC5)cc4C)c3c2)nc1 [Cpd 75, (3R)-3-(6-((3-(4-((1,1-Dioxidotetrahydro-2H-thiopyran-4-yl)methoxy)-2-methylphenyl)benzo[b]thiophen-5-yl)methoxy)pyridin-3-yl)hex-4-ynoic acid] | 7
CC#C[C@H](CC(=O)O)c1ccc(OCc2ccc3scc(-c4ccc(OCCOC)cc4C)c3c2)nc1 [Cpd 76, (3S)-3-(6-((3-(4-(2-Methoxyethoxy)-2-methylphenyl)benzo[b]thiophen-5-yl)methoxy)pyridin-3-yl)hex-4-ynoic acid] | 830
